Assay results taken from patent US10785975B2, “Water and feed antimicrobial preservative” (priority 2009, dated 2020).
Where two headings read alike, the source gives them in different places.

What was measured:
Assay type in all cases: cell-based
Salmonella typhimurium [1] = assay: Example 2: effect of carbon chain length of individual organic acids on antimicrobial activity in water; parameters: MIC at 4 HR / MIC at 24 FIR: unit not given here; conditions: for killing at […] / killing at 0.05 % / killing at 0.075 % / killing at 0.1 %: Salmonella enterica, TYPHIMURIUM
Description: 100 ul of a nutrient broth culture of Salmonella typhimurium was added to each dilution tube. After addition, tubes were vortexed and allowed to stand. At 4 and 24 hours after addition of the inoculum, 100 ul of the solution was plated on agar (triplicate plates). Plates were incubated at 37° C. for 24 hours prior to enumeration. The minimum effective dose of each acid was be determined by linear regression: […]

Salmonella typhimurium [2] = assay: Example 1: effect of pH buffering of acetic and propionic acid on antimicrobial activity in water
Description: Propionic and acetic acids were buffered with ammonium hydroxide to pHs ranging from 1 to 7. Acid contents of the buffered solutions were determined by a weight to weight ratio calculation to obtain the same acid content in the test solutions. […] The pHs of the deionized water solutions were recorded and any problems with solubility noted.
(§1) 100 ul of a nutrient broth culture of Salmonella typhimurium was added to each dilution tube. After addition, tubes were vortexed and allowed to stand. At 4 and 24 hours after addition of the inoculum, 100 ul of the solution was plated on Standard Plate agar (triplicate plates). Plates were incubated at 37° C. for 24 hours prior to enumeration. The minimum effective dose of each acid was determined by linear regression.

Salmonella typhimurium [3] = assay: Study 4: pelargonic acid (1-20%) in buffered propionic or acetic acid in water
Description: Propionic and acetic acids were buffered with ammonium hydroxide to a pH of 3 and combined with pelargonic in the ratios listed. Acid content of the buffered solutions was determined by weight to weight ratio calculation (weight of acid/total weight of buffered solution) and adjusted to provide an equal acid value for each treatment. […] The pHs of the deionized water solutions were recorded and any problems with solubility noted.
100 ul of a nutrient broth culture of Salmonella typhimurium was added to each dilution tube. After addition, tubes were vortexed and allowed to stand. At 4 and 24 hours after addition of the inoculum, 100 ul of the solution was plated on Standard Plate agar (triplicate plates). Plates were incubated at 37° C. for 24 hours prior to enumeration.

Salmonella typhimurium [4] = assay: Example 3: buffered organic acid mixtures with pelargonic acid in water
Description: Procedure: Propionic and acetic acids were buffered with ammonium hydroxide to a pH of 3 and combined with pelargonic in the ratios above. Acid content of the buffered solutions was determined by weight to weight ratio calculation (weight of acid/total weight of buffered solution) and adjusted to provide an equal acid value for each treatment. […] The pHs of the deionized water solutions were recorded and any problems with solubility noted.
as §1

[5] = Product Conc. 0.025 (% acid solution in water), 4 hr
[6] = Product Conc. 0.025 (% acid solution in water), 24 hr
[7] = Product Conc. 0.05 (% acid solution in water), 4 hr
[8] = Product Conc. 0.05 (% acid solution in water), 24 hr
[9] = Product Conc. 0.075 (% acid solution in water), 4 hr
[10] = Product Conc. 0.075 (% acid solution in water), 24 hr
[11] = Product Conc. 0.1 (% acid solution in water), 4 hr
[12] = Product Conc. 0.1 (% acid solution in water), 24 hr
[13] = Product Concentration 0.025 (% total acid solution in water)
[14] = Product Concentration 0.05 (% total acid solution in water)
[15] = Product Conc. 0.025 (% total acid solution in water)
[16] = Product Conc. 0.05 (% total acid solution in water)
[17] = Product Conc. 0.075 (% total acid solution in water)
[18] = Product Conc. 0.1 (% total acid solution in water)

CCCCCCCC(=O)O [Caprylic acid/KOH, Caprylic acid]
MIC at 4 HR (Salmonella typhimurium [1]; Minimum Inhibitory Concentration of Organic Acids against Salmonella, by linear regression, 4 hr): 0.109
MIC at 24 FIR (Salmonella typhimurium [1]; Minimum Inhibitory Concentration of Organic Acids against Salmonella, by linear regression, 24 hours): 0.090
Salmonella at time Interval 4 hr cfu/g (Salmonella typhimurium [1]; [5]): 1567 cfu/g
Salmonella at time Interval 24 hr cfu/g (Salmonella typhimurium [1]; [6]): 1400 cfu/g
Salmonella at time Interval 4 hr cfu/g (Salmonella typhimurium [1]; [7]): 1333 cfu/g
Salmonella at time Interval 24 hr cfu/g (Salmonella typhimurium [1]; [8]): 797 cfu/g
Salmonella at time Interval 4 hr cfu/g (Salmonella typhimurium [1]; [9]): 1100 cfu/g
Salmonella at time Interval 24 hr cfu/g (Salmonella typhimurium [1]; [10]): 77 cfu/g
Salmonella at time Interval 4 hr cfu/g (Salmonella typhimurium [1]; [11]): 0 cfu/g
Salmonella at time Interval 24 hr cfu/g (Salmonella typhimurium [1]; [12]): 0 cfu/g
killing at […] (Salmonella typhimurium [1]; Product Conc. 0.025 (% acid solution in water), 4 hr, read-out: Salmonella at time Interval 4 hr % reduction): 2%
killing at […] (Salmonella typhimurium [1]; Product Conc. 0.025 (% acid solution in water), 24 hr, read-out: Salmonella at time Interval 24 hr % reduction): 18%
killing at 0.05 % (Salmonella typhimurium [1]; Product Conc. 0.05 (% acid solution in water), 4 hr, read-out: Salmonella at time Interval 4 hr % reduction): 17%
killing at 0.05 % (Salmonella typhimurium [1]; Product Conc. 0.05 (% acid solution in water), 24 hr, read-out: Salmonella at time Interval 24 hr % reduction): 53%
killing at 0.075 % (Salmonella typhimurium [1]; Product Conc. 0.075 (% acid solution in water), 4 hr, read-out: Salmonella at time Interval 4 hr % reduction): 31%
killing at 0.075 % (Salmonella typhimurium [1]; Product Conc. 0.075 (% acid solution in water), 24 hr, read-out: Salmonella at time Interval 24 hr % reduction): 95%
killing at 0.1 % (Salmonella typhimurium [1]; Product Conc. 0.1 (% acid solution in water), 4 hr, read-out: Salmonella at time Interval 4 hr % reduction): 100%
killing at 0.1 % (Salmonella typhimurium [1]; Product Conc. 0.1 (% acid solution in water), 24 hr, read-out: Salmonella at time Interval 24 hr % reduction): 100%

CC(=O)O [Acetic pH 3, Acetic acid]
MIC at 4 Hr (Salmonella typhimurium [2]; Minimum Inhibitory Concentrations, by linear regression over 0.025-0.1% acid solutions, 4 hr, pH 3): 0.176
MIC at 24 HR (Salmonella typhimurium [2]; Minimum Inhibitory Concentrations, by linear regression over 0.025-0.1% acid solutions, 24 hr, pH 3): 0.073
Salmonella at time Interval 4 hr % reduction (Salmonella typhimurium [2]; [5]): 27%
Salmonella at time Interval 4 hr cfu/g (Salmonella typhimurium [2]; [5]): 1100 cfu/g
Salmonella at time Interval 24 hr % reduction (Salmonella typhimurium [2]; [6]): 75%
Salmonella at time Interval 24 hr cfu/g (Salmonella typhimurium [2]; [6]): 300 cfu/g
Salmonella at time Interval 4 hr % reduction (Salmonella typhimurium [2]; [7]): 44%
Salmonella at time Interval 4 hr cfu/g (Salmonella typhimurium [2]; [7]): 843 cfu/g
Salmonella at time Interval 24 hr % reduction (Salmonella typhimurium [2]; [8]): 90%
Salmonella at time Interval 24 hr cfu/g (Salmonella typhimurium [2]; [8]): 117 cfu/g
Salmonella at time Interval 4 hr % reduction (Salmonella typhimurium [2]; [9]): 38%
Salmonella at time Interval 4 hr cfu/g (Salmonella typhimurium [2]; [9]): 927 cfu/g
Salmonella at time Interval 24 hr % reduction (Salmonella typhimurium [2]; [10]): 92%
Salmonella at time Interval 24 hr cfu/g (Salmonella typhimurium [2]; [10]): 90 cfu/g
Salmonella at time Interval 4 hr % reduction (Salmonella typhimurium [2]; [11]): 42%
Salmonella at time Interval 4 hr cfu/g (Salmonella typhimurium [2]; [11]): 873 cfu/g
Salmonella at time Interval 24 hr % reduction (Salmonella typhimurium [2]; [12]): 96%
Salmonella at time Interval 24 hr cfu/g (Salmonella typhimurium [2]; [12]): 43 cfu/g
Salmonella at time Interval 4 hr % reduction (Salmonella typhimurium [3]; [13]): 29%
Salmonella at time Interval 4 hr cfu/g (Salmonella typhimurium [3]; [13]): 1000 cfu/g
Salmonella at time Interval 24 hr % reduction (Salmonella typhimurium [3]; [13]): 96%
Salmonella at time Interval 24 hr cfu/g (Salmonella typhimurium [3]; [13]): 60 cfu/g
Salmonella at time Interval 4 hr % reduction (Salmonella typhimurium [3]; [14]): 32%
Salmonella at time Interval 4 hr cfu/g (Salmonella typhimurium [3]; [14]): 950 cfu/g
Salmonella at time Interval 24 hr % reduction (Salmonella typhimurium [3]; [14]): 99%
Salmonella at time Interval 24 hr cfu/g (Salmonella typhimurium [3]; [14]): 20 cfu/g
Salmonella at time Interval 4 hr % reduction (Salmonella typhimurium [4]; [15]): 38%
Salmonella at time Interval 4 hr cfu/g (Salmonella typhimurium [4]; [15]): 943 cfu/g
Salmonella at time Interval 24 hr % reduction (Salmonella typhimurium [4]; [15]): 92%
Salmonella at time Interval 24 hr cfu/g (Salmonella typhimurium [4]; [15]): 123 cfu/g
Salmonella at time Interval 4 hr % reduction (Salmonella typhimurium [4]; [16]): 34%
Salmonella at time Interval 4 hr cfu/g (Salmonella typhimurium [4]; [16]): 1007 cfu/g
Salmonella at time Interval 24 hr % reduction (Salmonella typhimurium [4]; [16]): 92%
Salmonella at time Interval 24 hr cfu/g (Salmonella typhimurium [4]; [16]): 120 cfu/g
Salmonella at time Interval 4 hr % reduction (Salmonella typhimurium [4]; [17]): 34%
Salmonella at time Interval 4 hr cfu/g (Salmonella typhimurium [4]; [17]): 1007 cfu/g
Salmonella at time Interval 24 hr % reduction (Salmonella typhimurium [4]; [17]): 95%
Salmonella at time Interval 24 hr cfu/g (Salmonella typhimurium [4]; [17]): 77 cfu/g
Salmonella at time Interval 4 hr % reduction (Salmonella typhimurium [4]; [18]): 36%
Salmonella at time Interval 4 hr cfu/g (Salmonella typhimurium [4]; [18]): 967 cfu/g
Salmonella at time Interval 24 hr % reduction (Salmonella typhimurium [4]; [18]): 95%
Salmonella at time Interval 24 hr cfu/g (Salmonella typhimurium [4]; [18]): 83 cfu/g
